Consider 22 compounds from patent US20250235460A1, “COMBINATION THERAPY USING GLUCOSE-DEPENDENT INSULINOTROPIC POLYPEPTIDE RECEPTOR ANTAGONIST COMPOUNDS AND GLP-1 RECEPTOR AGONIST COMPOUNDS” (Pfizer Inc., priority 2024, published 2025).

Assay [1] concerns the target human GLP-1R (Homo sapiens, UniProt P43220, G168S). Nature of the assay: CHO GLP-1R Clone H6 cAMP HTRF agonist assay (Assay 1, high receptor density). The class given is cell-based. To be noted: for EC50: CHO GLP-1R clone H6, cAMP HTRF, geometric mean; for Emax: CHO GLP-1R clone H6, arithmetic mean, relative to saturating GLP-1 (1 μM), read-out: Assay 1 Emax (%). An outline of the steps:
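Two significant figures are used throughout. Each EC50 is the geometric mean of its replicates, and each Emax is the arithmetic mean.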
On the technique in general: In TR-FRET formats the signal depends on donor and acceptor labels being close together.

Assay [2] deals with human GLP-1R (Homo sapiens, UniProt P43220, L260F). Nature of the assay: CHO GLP-1R Clone C6 cAMP HTRF agonist assay (Assay 2, low receptor density). Type of assay: cell-based. To be noted: for EC50: geometric mean; for Emax: CHO GLP-1R clone C6, arithmetic mean, relative to saturating GLP-1 (1 μM). The source says:
In Table 5 and Table 6, assay data are presented to two (2) significant figures as the geometric mean (EC50s) and arithmetic mean (Emax) based on the number of replicates listed (Number). A blank cell means there was no data for that Example or the Emax was not calculated.

Chain of human GLP-1R (Homo sapiens, UniProt P43220, G168S) (P43220 24-463 G168S): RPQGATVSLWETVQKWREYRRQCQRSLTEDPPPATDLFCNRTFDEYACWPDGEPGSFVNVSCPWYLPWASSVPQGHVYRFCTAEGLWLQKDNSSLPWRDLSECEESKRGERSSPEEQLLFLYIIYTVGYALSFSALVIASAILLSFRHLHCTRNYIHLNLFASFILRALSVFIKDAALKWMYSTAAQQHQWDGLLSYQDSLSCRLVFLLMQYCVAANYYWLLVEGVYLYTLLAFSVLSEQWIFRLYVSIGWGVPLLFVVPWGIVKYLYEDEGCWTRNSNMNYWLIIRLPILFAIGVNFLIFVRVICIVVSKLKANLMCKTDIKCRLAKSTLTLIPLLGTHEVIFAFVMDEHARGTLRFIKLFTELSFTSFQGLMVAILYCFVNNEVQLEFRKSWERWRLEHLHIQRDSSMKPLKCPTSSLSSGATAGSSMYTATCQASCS
Chain of human GLP-1R (Homo sapiens, UniProt P43220, L260F) (P43220 24-463 L260F): as the sequence (P43220 24-463 G168S) above, with S145G, L237F counted along it

As usually defined, the EC50 is the concentration that produces a half-maximal response. Low readings indicate an effect from little substance, high ones a need for much substance. As a reminder, the Emax is the size of the effect at its maximum, as opposed to the concentration needed. Consider `C[C@H]1CN(c2cccc(OCc3ccc(C#N)cc3F)n2)CCN1Cc1nc2ccc(C(=O)O)cc2n1Cc1ncco1` [Compound 146B, 2-{[(2S)-4-{6-[(4-cyano-2-fluorobenzyl)oxy]pyridin-2-yl}-2-methylpiperazin-1-yl]methyl}-1-(1,3-oxazol-2-ylmethyl)-1H-benzimidazole-6-carboxylic acid], for which the EC50 at human GLP-1R [1] amounted to 43 nM; at human GLP-1R [2] (CHO GLP-1R clone C6, cAMP HTRF), 680 nM. Further, the Emax was 82% on human GLP-1R [1] and 110% at human GLP-1R [2].

For `O=C(O)c1ccc2nc(CN3CCC(c4cccc(OCc5ccc(Cl)cc5F)n4)CC3)n(CCC3CCCCO3)c2c1` (stereo not drawn) [Compound 280B, 2-[(4-{6-[(4-chloro-2-fluorobenzyl)oxy]pyridin-2-yl}piperidin-1-yl)methyl]-1-[2-(tetrahydro-2H-pyran-2-yl)ethyl]-1H-benzimidazole-6-carboxylic acid], the EC50 on human GLP-1R [1] stood at 11 nM; at human GLP-1R [2] (CHO GLP-1R clone C6, cAMP HTRF), 380 nM. Further, the figures for the Emax at human GLP-1R [1] and at human GLP-1R [2] were 65% and 96%, respectively.

As for `O=C(O)c1ccc2nc(CN3CCC(c4cccc5c4O[C@H](c4ccc(Cl)cc4F)O5)CC3)n(C[C@@H]3CCO3)c2c1` [Compound 4B, Ammonium 2-({4-[(2R)-2-(4-chloro-2-fluorophenyl)-1,3-benzodioxol-4-yl]piperidin-1-yl}methyl)-1-[(2S)-oxetan-2-ylmethyl]-1H-benzimidazole-6-carboxylate], the EC50 at human GLP-1R [2] (CHO GLP-1R clone, low receptor density, cAMP HTRF) is > 20000 nM.

In the case of `O=C(O)c1ccc2nc(CN3CCC(c4cccc(OCc5ccc(Cl)cc5F)n4)CC3)n(CCN3CCOC3=O)c2c1` [Compound 295B, 2-[(4-{6-[(4-chloro-2-fluorobenzyl)oxy]pyridin-2-yl}piperidin-1-yl)methyl]-1-[2-(2-oxo-1,3-oxazolidin-3-yl)ethyl]-1H-benzimidazole-6-carboxylic acid], the EC50 on human GLP-1R [1] came out at 87 nM; on human GLP-1R [2] (CHO GLP-1R clone C6, cAMP HTRF), 3100 nM. At human GLP-1R [2], this compound gave an Emax of 110%.

Compound `N#Cc1ccc(COc2nc(C3CCN(Cc4nc5ccc(C(=O)O)cc5n4C[C@@H]4CCCO4)CC3)ccc2F)cc1` [Compound 128B, 2-[(4-{6-[(4-cyanobenzyl)oxy]-5-fluoropyridin-2-yl}piperidin-1-yl)methyl]-1-[(2S)-tetrahydrofuran-2-ylmethyl]-1H-benzimidazole-6-carboxylic acid] registered an Emax on human GLP-1R [2] of 86%.

Turning to `N#Cc1ccc(COc2cccc(C3CCN(Cc4nc5ccc(C(=O)O)cc5n4C[C@@H]4CCO4)CC3)n2)c(F)c1` [Compound 110B, 2-[(4-{6-[(4-cyano-2-fluorobenzyl)oxy]pyridin-2-yl}piperidin-1-yl)methyl]-1-[(2S)-oxetan-2-ylmethyl]-1H-benzimidazole-6-carboxylic acid], the Emax on human GLP-1R [2] turned out to be 82%.

For `C[C@H]1CN(c2cccc(OCc3ccc(Cl)cc3F)n2)CCN1Cc1nc2ccc(C(=O)O)cc2n1Cc1cnco1` [Compound 147B, 2-{[(2S)-4-{6-[(4-chloro-2-fluorobenzyl)oxy]pyridin-2-yl}-2-methylpiperazin-1-yl]methyl}-1-(1,3-oxazol-5-ylmethyl)-1H-benzimidazole-6-carboxylic acid], on human GLP-1R [1], it took 210 nM to reach a half-maximal effect (EC50) and the Emax amounted to 79%.

`Cn1cnnc1CCn1c(CN2CCC(c3cccc(OCc4ccc(Cl)cc4F)n3)CC2)nc2ccc(C(=O)O)cc21` [Compound 328B, 2-[(4-{6-[(4-chloro-2-fluorobenzyl)oxy]pyridin-2-yl}piperidin-1-yl)methyl]-1-[2-(4-methyl-4H-1,2,4-triazol-3-yl)ethyl]-1H-benzimidazole-6-carboxylic acid]: on human GLP-1R [1], the EC50 was found to be 3100 nM and the Emax came out at 51%.

On to `C[C@H]1CN(c2cccc(OCc3ccc(C#N)cc3F)n2)CCN1Cc1nc2ccc(C(=O)O)cc2n1C[C@H]1CCOC1` [Compound 267B, 2-{[(2S)-4-{6-[(4-cyano-2-fluorobenzyl)oxy]pyridin-2-yl}-2-methylpiperazin-1-yl]methyl}-1-[(3R)-tetrahydrofuran-3-ylmethyl]-1H-benzimidazole-6-carboxylic acid], for which, at human GLP-1R [1], the EC50 was > 19000 nM and the Emax was determined as 100%.

Consider `N#Cc1ccc(COc2cccc(C3CCN(Cc4nc5ccc(C(=O)O)cc5n4C[C@@H]4CCOC4)CC3)n2)c(F)c1` [Compound 126B, 2-[(4-{6-[(4-cyano-2-fluorobenzyl)oxy]pyridin-2-yl}piperidin-1-yl)methyl]-1-[(3S)-tetrahydrofuran-3-ylmethyl]-1H-benzimidazole-6-carboxylic acid], for which the Emax at human GLP-1R [2] is 90%.

Regarding `COC[C@@H](C)n1c(CN2CCC(c3cccc(OCc4ccc(Cl)cc4F)n3)CC2)nc2ccc(C(=O)O)cc21` [Compound 321B, 2-[(4-{6-[(4-chloro-2-fluorobenzyl)oxy]pyridin-2-yl}piperidin-1-yl)methyl]-1-[(2R)-1-methoxypropan-2-yl]-1H-benzimidazole-6-carboxylic acid], at human GLP-1R [1], the EC50 amounted to 1100 nM and the Emax stood at 81%.

As to `COCCn1c(CN2CCN(c3nc(OCc4ccc(Cl)cc4F)ccc3F)C[C@@H]2C)nc2ccc(C(=O)O)cc21` [Compound 180B, 2-{[(2S)-4-{6-[(4-chloro-2-fluorobenzyl)oxy]-3-fluoropyridin-2-yl}-2-methylpiperazin-1-yl]methyl}-1-(2-methoxyethyl)-1H-benzimidazole-6-carboxylic acid], at human GLP-1R [1], the EC50 was > 17000 nM and the Emax was 100%.

Consider `Cn1cncc1Cn1c(CN2CCC(c3cccc(OCc4ccc(C#N)cc4F)n3)CC2)nc2ccc(C(=O)O)nc21` [Compound 274B, 2-[(4-{6-[(4-cyano-2-fluorobenzyl)oxy]pyridin-2-yl}piperidin-1-yl)methyl]-3-[(1-methyl-1H-imidazol-5-yl)methyl]-3H-imidazo[4,5-b]pyridine-5-carboxylic acid], for which the EC50 at human GLP-1R [1] was > 20000 nM.

With `Cn1cc(CCn2c(CN3CCC(c4cccc(OCc5ccc(Cl)cc5F)n4)CC3)nc3ccc(C(=O)O)cc32)nn1` [Compound 319B, 2-[(4-{6-[(4-chloro-2-fluorobenzyl)oxy]pyridin-2-yl}piperidin-1-yl)methyl]-1-[2-(1-methyl-1H-1,2,3-triazol-4-yl)ethyl]-1H-benzimidazole-6-carboxylicacid], on human GLP-1R [1], the EC50 is 1100 nM and the Emax is 47%.

`Cc1nc(Cn2c(CN3CCC(c4cccc(OCc5ccc(Cl)cc5F)n4)CC3)nc3ccc(C(=O)O)cc32)c(C)o1` [Compound 330B, 2-[(4-{6-[(4-chloro-2-fluorobenzyl)oxy]pyridin-2-yl}piperidin-1-yl)methyl]-1-[(2,5-dimethyl-1,3-oxazol-4-yl)methyl]-1H-benzimidazole-6-carboxylic acid]: on human GLP-1R [1], the EC50 was determined as 9300 nM and the Emax stood at 100%.

Regarding `CCn1cncc1Cn1c(CN2CCC(c3cccc(OCc4ccc(C#N)cc4F)n3)CC2)nc2ccc(C(=O)O)nc21` [Compound 273B, 2-[(4-{6-[(4-cyano-2-fluorobenzyl)oxy]pyridin-2-yl}piperidin-1-yl)methyl]-3-[(1-ethyl-1H-imidazol-5-yl)methyl]-3H-imidazo[4,5-b]pyridine-5-carboxylic acid], the EC50 on human GLP-1R [1] is > 20000 nM.

`Cn1c(CN2CCC(c3cccc(OCc4ccc(F)cc4F)n3)CC2)nc2ccc(C(=O)O)cc21` [Compound 223B, 2-[(4-{6-[(2,4-difluorobenzyl)oxy]pyridin-2-yl}piperidin-1-yl)methyl]-1-methyl-1H-benzimidazole-6-carboxylic acid]: at human GLP-1R [1], the midpoint of the response, the EC50, lay at 170 nM and the Emax turned out to be 69%.

Turning to `COCCn1c(CN2CCC(c3cccc(OCc4ccc(Cl)cc4F)n3)CC2)nc2ccc(C(=O)O)nc21` [Compound 213B, 2-[(4-{6-[(4-chloro-2-fluorobenzyl)oxy]pyridin-2-yl}piperidin-1-yl)methyl]-3-(2-methoxyethyl)-3H-imidazo[4,5-b]pyridine-5-carboxylic acid], at human GLP-1R [1], the response was half-maximal at 390 nM (EC50) and the Emax came to 82%.

On to `COC[C@H](C)n1c(CN2CCC(c3cccc(OCc4ccc(Cl)cc4F)n3)CC2)nc2ccc(C(=O)O)cc21` [Compound 320B, 2-[(4-{6-[(4-chloro-2-fluorobenzyl)oxy]pyridin-2-yl}piperidin-1-yl)methyl]-1-[(2S)-1-methoxypropan-2-yl]-1H-benzimidazole-6-carboxylic acid], for which, on human GLP-1R [1], the EC50 came out at 1100 nM and the Emax was 65%.

Regarding `CC(C)n1cnnc1Cn1c(CN2CCC(c3cccc(OCc4ccc(Cl)cc4F)n3)CC2)nc2ccc(C(=O)O)cc21` [Compound 236B, 2-[(4-{6-[(4-chloro-2-fluorobenzyl)oxy]pyridin-2-yl}piperidin-1-yl)methyl]-1-{[4-(propan-2-yl)-4H-1,2,4-triazol-3-yl]methyl}-1H-benzimidazole-6-carboxylic acid], at human GLP-1R [1], the EC50 was 1300 nM and the Emax came out at 79%.

For the compound `N#Cc1ccc(COc2nc(C3CCN(Cc4nc5ccc(C(=O)O)cc5n4C[C@H]4CCCO4)CC3)ccc2F)cc1` [Compound 129B, 2-[(4-{6-[(4-cyanobenzyl)oxy]-5-fluoropyridin-2-yl}piperidin-1-yl)methyl]-1-[(2R)-tetrahydrofuran-2-ylmethyl]-1H-benzimidazole-6-carboxylic acid], on human GLP-1R [2], the Emax is 98%.

For the compound `Cn1c(CN2CCC(c3cccc(OCc4ccc(C#N)cc4)n3)CC2)nc2ccc(C(=O)O)cc21` [Compound 234B, 2-[(4-{6-[(4-cyanobenzyl)oxy]pyridin-2-yl}piperidin-1-yl)methyl]-1-methyl-1H-benzimidazole-6-carboxylic acid], at human GLP-1R [1], the EC50 was determined as 290 nM and the Emax is 64%.
